The record followed here is patent publication US20230135894A1, “MK2 DEGRADERS AND USES THEREOF” (Kymera Therapeutics, Inc., priority 2021, published 2023).

Where only a bound is given, the exact number is not on record here.

By Dmax is commonly meant the greatest extent of degradation seen. One may read the DC50 as the concentration giving 50% degradation.

Test [1] has as its target T1, MK2 (Homo sapiens, UniProt P49137). In words: MK2 degradation in human THP-1 monocytic cells (MSD, 24 h). Particulars: for Dmax: THP-1, THP-1 cells; for DC50: read-out: MK2 MSD THP-1 degradation 24 h GMean External Abs DC50. Details: endogenous in cells; key to MK2 MSD THP-1 degradation 24 h GMean External Abs DC50: A (<0.001 μM); B (0.001-0.01 μM); C (0.01-0.1 μM); D (>0.1 μM); —: “-”=not tested or inactive. In kind it is cell-based. How it is done: MK2 Degradation in Human THP-1 Monoctyic Cells
(§1) The human monocytic cancer cell line THP-1 (ATCC (TIB-202)) was cultured in 96 well plates (Corning 3894) at a density of 200,000 cells per well in 100 microlitres in complete growth medium of RPMI 1640 (Gibco) pus 10% fetal Bovine Serum (Corning) and Penicillin/Streptomycin (SolarBio) at 37 degrees Celsius and 5% CO2. A serial dilution of each compound (usually 3 to 5 fold serial dilutions up to 10 separate concentration points) was added to individual wells from a 10 millimolar stock solution, at a background concentration of 0.1% DMSO and the cells were shaken at 600 rpm for 5 minutes and then were cultured for 24 hours at 37 degrees Celsius and 5% carbon dioxide. Separately, a custom MSD (MesoScaleDiscovery, L15XA-3) plate for detection of human MK2 was prepared by coating the plate with the commercial AbCam ab247272 reagent in 1×Phosphate Buffered Saline at 40 microlitres per well and incubated at 4 degrees Celsius overnight. The next day, the MSD plate was washed with 150 microlitres of Tween buffered saline, blocked with MSD blocking buffer (3% Blocker A from MSD), and washed again.
(§2) The cell plate was centrifuged at 3,200 g for 5 minutes and the supernatant was discarded and 100 microlitres of RIPA lysis buffer (containing proteinase inhibitors, Boston BioProducts BP-115D) was added and the plate was sealed and shaken on ice for 20 minutes. The plate was centrifuged as before and 70 microlitres of sample lysate was added to the MSD plates and they were shaken at room temperature for 1 hour at 600 rpm. The MSD plate was washed 3 times as before and then the primary MK2 detection antibody (Santa Cruz sc-100393) was added at a final concentration of 1 microgram per ml at 25 microlitres per well and shaken at room temperature for 1 hour at 600 rpm.
(§3) After 3 more washes, the secondary detection antibody (SULFO-Tag anti rabbit antibody R32AB-5) was added at a final concentration of 1 microgram per ml at 25 microlitres per well and shaken at room temperature for 1 hour at 600 rpm. After 3 more washes, the 1×MSD (diluted from 5× concentrate with water) reading buffer was added at 150 microlitres per well and read on the MSD instrument Meso Sector S 600.
(§4) The inhibition/degradation curves and DC50 values were plotted and calculated using XL Fit (version v5.3.1.3) using equation 201 and a 4 parameter logistic model whereby fit=(A+((B−A)/(1+((x/C)D))) where A is the Bottom and B is the Top and C is the IC50 and D is the slope and high C is the signal for the DMSO treated cells and Low C is the signal is the signal for the lysis buffer.

In test [2] the target is T1, MK2. Briefly: MK2 degradation in human SW1353 cells (MSD, 24 h). In kind it is cell-based. Details: endogenous in cells; host or cells: SW-1353 (ATCC HTB-94); key to MK2 MSD SW1353 degradation 24 h GMean External Abs DC50: A (<0.001 μM); B (0.001-0.01 μM); C (0.01-0.1 μM); D (>0.1 μM); —: “-”=not tested or inactive. Particulars: for Dmax: read-out: MK2 MSD SW 1353 24 h Dmax %; for DC50: read-out: MK2 MSD SW1353 degradation 24 h GMean External Abs DC50. How it is done: MK2 Degradation in Human SW1353 Cells
as §1, with “chondrocyte” for “monocytic”, “SW-1353 (ATCC(HTB-94))” for “THP-1 (ATCC (TIB-202))”, “Leibovitz's L-15 Medium” for “RPMI 1640”, “Celsius.” for “Celsius and 5% CO2.”, “Celsius.” for “Celsius and 5% carbon dioxide.”
as §2, §3, §4

T1 sequence (P49137 whole entry): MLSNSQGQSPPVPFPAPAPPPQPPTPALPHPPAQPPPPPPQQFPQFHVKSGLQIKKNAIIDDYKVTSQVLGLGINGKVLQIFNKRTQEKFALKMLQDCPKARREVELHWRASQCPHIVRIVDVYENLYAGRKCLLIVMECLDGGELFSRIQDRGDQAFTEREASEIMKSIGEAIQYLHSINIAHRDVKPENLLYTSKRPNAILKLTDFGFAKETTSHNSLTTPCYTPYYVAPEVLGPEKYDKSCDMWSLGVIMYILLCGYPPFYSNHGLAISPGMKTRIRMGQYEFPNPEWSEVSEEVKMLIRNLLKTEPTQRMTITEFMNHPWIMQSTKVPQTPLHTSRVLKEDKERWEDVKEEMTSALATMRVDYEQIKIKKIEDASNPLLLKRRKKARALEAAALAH

As to `C[C@@H]1CN(C)c2c(sc3ccc4nc(-c5ccc(N6CCC(CN7CCN(c8cccc9c(N%10CCC(=O)NC%10=O)cncc89)CC7)CC6)cc5)ccc4c23)C(=O)N1` [Compound I-261], the results for the Dmax at MK2 [1] and at MK2 [2] were less than 50% and more than 75%, respectively. The DC50 on MK2 [1] (THP-1 cells) is more than 100 nM; on MK2 [2] it was 10 to 100 nM.

In the case of `C[C@@H]1CNc2c(sc3ccc4nc(-c5cnc(N6CCC(CN7CCN(c8cccc9c8n(C)c(=O)n9C8CCC(=O)NC8=O)CC7)CC6)nc5)ccc4c23)C(=O)N1` (some centres unmarked) [Compound I-270], the Dmax at MK2 [1] and on MK2 [2] was more than 75% each time. The values for the DC50 at MK2 [1] (THP-1 cells) and at MK2 [2] were less than 1 nM and 1 to 10 nM, respectively.

For the compound `Cn1c(=O)n(C2CCC(=O)NC2=O)c2ccc(N3CCC(CN4CCN(c5cc(-c6ccccc6)cc(-c6cc(-c7cc8c([nH]7)CCNC8=O)ccn6)c5)CC4)CC3)cc21` (centres unmarked) [Compound I-224], the Dmax on MK2 [1] and at MK2 [2] was less than 50% throughout. In addition, the DC50 at MK2 [1] (THP-1 cells) and on MK2 [2] was more than 100 nM throughout.

Consider `C[C@@H]1CNc2c(sc3ccc4nc(-c5cncc(N6CCN(CC7CCN(c8cccc9c8n(C)c(=O)n9C8CCC(=O)NC8=O)CC7)CC6)c5)ccc4c23)C(=O)N1` (some centres unmarked) [Compound I-160], for which the Dmax at MK2 [1] and at MK2 [2] was more than 75% throughout. Also, the DC50 on MK2 [1] (THP-1 cells) and at MK2 [2] was less than 1 nM each time.

As for `C[C@@H]1CNc2c(sc3ccc4nc(-c5ccc(N6CCN(CCc7ccc8c(c7)n(C)c(=O)n8C7CCC(=O)NC7=O)CC6)cc5)ccc4c23)C(=O)N1` (some centres unmarked) [Compound I-280], the Dmax at MK2 [1] and on MK2 [2] was more than 75% each time. Also, the DC50 at MK2 [1] (THP-1 cells) and on MK2 [2] was less than 1 nM throughout.

For the compound `Cn1c(=O)n(C2CCC(=O)NC2=O)c2cccc(CCCN3CCN(c4ccc(-c5cc(-c6cc7c([nH]6)C6(CCCC6)CNC7=O)ccn5)cc4)CC3)c21` (centres unmarked) [Compound I-191], the Dmax is 50 to 75% at MK2 [1] and more than 75% on MK2 [2]. The 50% degradation concentration (DC50) on MK2 [1] (THP-1 cells) lay in the range of 10 to 100 nM; on MK2 [2], 1 to 10 nM.

Regarding `O=C1CCC(N2Cc3cc(N4CCN(CC5CCN(c6ccc(-c7cc(-c8cc9c([nH]8)CCNC9=O)ccn7)c(F)c6)CC5)CC4)ccc3C2=O)C(=O)N1` (centres unmarked) [Compound I-295], the Dmax on MK2 [1] is 50 to 75%; at MK2 [2] it was more than 75%. Besides, the DC50 on MK2 [1] (THP-1 cells) and on MK2 [2] was 10 to 100 nM each time.

Turning to `C[C@@H]1CNc2c(sc3ccc4nc(N5C[C@H]6C[C@@H]5CN6CC5CCN(c6cccc7c6n(C)c(=O)n7C6CCC(=O)NC6=O)CC5)ccc4c23)C(=O)N1` (some centres unmarked) [Compound I-182], the Dmax on MK2 [1] is less than 50%. On MK2 [1] (THP-1 cells), the “MK2 MSD THP-1 degradation 24 h GMean External Abs DC50” value is “—”. In addition, on MK2 [2], the “MK2 MSD SW1353 degradation 24 h GMean External Abs DC50” value is recorded as “—” and the Dmax is less than 50%.

On to `C[C@@H]1CNc2c(sc3ccc4nc(N5CCN(CCC6CCN(c7ccc8c(c7)n(C)c(=O)n8C7CCC(=O)NC7=O)CC6)CC5)ccc4c23)C(=O)N1` (some centres unmarked) [Compound I-445], for which the Dmax on MK2 [1] and on MK2 [2] was more than 75% in each case. Further, the DC50 on MK2 [1] (THP-1 cells) and at MK2 [2] was less than 1 nM each time.

For the compound `Cn1c(=O)n(C2CCC(=O)NC2=O)c2cccc(N3CCC(CCN4CCN(c5ccc(-c6cc(-c7cc8c([nH]7)CCNC8=O)ccn6)cc5)CC4)CC3)c21` (centres unmarked) [Compound I-139], the Dmax at MK2 [1] and on MK2 [2] was more than 75% each time. Further, the figures for the DC50 at MK2 [1] (THP-1 cells) and at MK2 [2] were less than 1 nM and 1 to 10 nM, respectively.

In the case of `C[C@@H]1CNc2c(sc3ccc4nc(N5CC6(CCN(C7CCN(c8ccc9c(c8)n(C)c(=O)n9C8CCC(=O)NC8=O)CC7)CC6)C5)ccc4c23)C(=O)N1` (some centres unmarked) [Compound I-393], the maximal degradation (Dmax) on MK2 [1] and at MK2 [2] was less than 50% in each case. The DC50 on MK2 [1] (THP-1 cells) and on MK2 [2] was more than 100 nM throughout.

Take `C[C@@H]1CNc2c(sc3ccc4nc(-c5cccc(C#CCNC(=O)COCCOCCc6cccc7c6n(C)c(=O)n7C6CCC(=O)NC6=O)c5)ccc4c23)C(=O)N1` (some centres unmarked) [Compound I-50]: the Dmax at MK2 [1] and at MK2 [2] was more than 75% each time. Moreover, the half-maximal degradation concentration (DC50) at MK2 [1] (THP-1 cells) and at MK2 [2] was 1 to 10 nM in each case.

With `C[C@@H]1CNc2c(sc3ccc4nc(-c5ccc(N6CCN(CCCCCCCCc7cccc8c7n(C)c(=O)n8C7CCC(=O)NC7=O)CC6)cc5)ccc4c23)C(=O)N1` (some centres unmarked) [Compound I-170], the Dmax at MK2 [1] and on MK2 [2] was more than 75% in each case. For the same compound, the DC50 at MK2 [1] (THP-1 cells) and at MK2 [2] was 1 to 10 nM throughout.

Regarding `C[C@@H]1CN(C)c2c(sc3ccc4nc(-c5cccc(N6CCC(CN7CCN(c8cccc9c(N%10CCC(=O)NC%10=O)cncc89)CC7)CC6)c5)ccc4c23)C(=O)N1` [Compound I-267], the greatest degradation seen (Dmax) at MK2 [1] and on MK2 [2] was less than 50% each time. In addition, the DC50 on MK2 [1] (THP-1 cells) and on MK2 [2] was more than 100 nM throughout.

As to `Cn1c(=O)n(C2CCC(=O)NC2=O)c2cccc(N3CC(N4CCN(c5ccc(-c6cc(-c7cc8c([nH]7)C7(CC7)CNC8=O)ccn6)cc5)CC4)C3)c21` (centres unmarked) [Compound I-419], the Dmax at MK2 [1] and at MK2 [2] was more than 75% in each case. Further, the DC50 on MK2 [1] (THP-1 cells) and on MK2 [2] was less than 1 nM each time.

For `Cn1c(=O)n(C2CCC(=O)NC2=O)c2ccc(N3CC(CN4CCN(c5ccc(-c6nccc(-c7cc8c([nH]7)C7(CC7)CNC8=O)n6)cc5)CC4)C3)cc21` (centres unmarked) [Compound I-426], the Dmax at MK2 [1] and on MK2 [2] was more than 75% throughout. Also, the DC50 at MK2 [1] (THP-1 cells) and on MK2 [2] was less than 1 nM in each case.

On to `Cn1c(=O)n(C2CCC(=O)NC2=O)c2cccc(C3CCN(CC4CCN(c5ccc(F)c(-c6cc(-c7cc8c([nH]7)CCNC8=O)ccn6)c5)CC4)CC3)c21` (centres unmarked) [Compound I-146], for which the maximal degradation (Dmax) at MK2 [1] and on MK2 [2] was less than 50% in each case. In addition, the DC50 at MK2 [1] (THP-1 cells) and at MK2 [2] was more than 100 nM in each case.

On to `C[C@@H]1CNc2c(sc3ccc4nc(-c5cccc(C#CCCNC(=O)COCCOCCc6ccc7c(c6)n(C)c(=O)n7C6CCC(=O)NC6=O)c5)ccc4c23)C(=O)N1` (some centres unmarked) [Compound I-49], for which the Dmax at MK2 [1] and at MK2 [2] was more than 75% in each case. In addition, the DC50 on MK2 [1] (THP-1 cells) and on MK2 [2] was 1 to 10 nM each time.

As to `Cn1c(=O)n(C2CCC(=O)NC2=O)c2ccc(N3CCC(CN4CCN(c5cc(C#N)cc(-n6cc(-c7ccc8c(c7)CCNC8=O)c(N)n6)c5)CC4)CC3)cc21` (centres unmarked) [Compound I-458], the Dmax at MK2 [1] and at MK2 [2] was less than 50% each time. In addition, the DC50 on MK2 [1] (THP-1 cells) and on MK2 [2] was more than 100 nM throughout.

Turning to `Cn1c(=O)n(C2CCC(=O)NC2=O)c2ccc(N3CC(CN4CCN(c5ccc(-c6cc(-c7cc8c([nH]7)CCNC8=O)ccn6)c(F)c5)CC4)C3)cc21` (centres unmarked) [Compound I-423], the Dmax on MK2 [1] and on MK2 [2] was more than 75% each time. Besides, the DC50 on MK2 [1] (THP-1 cells) and at MK2 [2] was less than 1 nM each time.
